Patent US8969556B2, “Purine-based triazoles” (Case Western Reserve University, priority 2010, dated 2015)
“Also recorded” adds a separate entry of the source.

Test system: hippocampal slice cultures
Assay: Aβ oligomer-induced neuronal cell death by PI staining (PI uptake) in hippocampal slice cultures
Conditions: compound 1 μM, 1 h pretreatment, then Aβ oligomers 5 μM, 48 h; mouse hippocampal slices
Experimental: In this Example, we used a convenient assay for neuronal cell death, which was induced by incubation with Aβ oligomers in hippocampal slice cultures. The binding of propidium iodide (PI) with DNA of dead cells gives characteristic fluorescence that could be followed by fluorescence microscopy. Since PI is impermeable to live cell membranes, the observed fluorescence is indicative of the extent of dead cell populations.
1.0 mg of Δβ1-42 peptide was dissolved in 120 μL of hexafluoroisopropanol for 60 min at room temperature, and placed back on ice for 5-10 min. Hexafluoroisopropanol was evaporated overnight in the hood at room temperature. The sample was dissolved by 100% DMSO by adding 20 μL of fresh anhydrous DMSO (Sigma Hybri-Max) to 0.45 mg of the peptide, and diluted to 5 mM peptide stock into medium. Diluted peptide was incubated at 4° C. for 24 h, and then centrifuged at 14,000 g for 10 min in the cold. Before treating slice culture with Δβ oligomers, the oligomers were incubated at room temperature for 20 h.
Hippocampal slice cultures were prepared from 7-10 day-old mouse pups. Slices were cut at 400 μm on a Mcllwain tissue chopper, transferred to Millicell (Millipore Corp., Bedford, Mass.) membrane inserts (0.4 μm), and placed in 6-well culture plated. The upper surfaces of the slices were exposed to a humidified 37° C. atmosphere containing 5% CO2. Slice culture media consisted of basal Eagles medium with Earle's balanced salt solution, 20% heat-inactivated horse serum, enriched with glucose to a concentration of 5.6 mM. The medium was changed every other day. Slices were examined periodically for viability, and any dark or abnormal slices were discarded.
The effects of Δβ oligomers were tested in the slices which had been maintained for 15-20 days in vitro. All reagents were added to serum free medium (no horse serum). Δβ oligomers were added to cultures in serum free medium. Vehicles were treated the same way except with no peptide.
To analyze the degree of hippocampal neuronal cell death, hippocampal slices were stained by adding PI into slice culture medium at a concentration of 5 μg/mL. At indicated times after Δβ oligomers treatment, the degree of hippocampal neuronal death was evaluated by microscopic observation of PI uptake as described previously. […] The intensity of the fluorescence was quantitatively analyzed using Scion Image. The images were expressed as an arbitrary unit of PI uptake.
Mouse hippocampal slice cultures were treated with Aβ oligomers in the presence of PI as the staining agent. The degree of hippocampal neuronal death was monitored by fluorescence microscopic observation of the PI uptake. The intensities of the fluorescence were conveniently analyzed using Scion images. The intensity of the PI fluorescence reflects the relative number of the dead cells, since PI cannot permeate the live cell membranes.

| SMILES | neuroprotective effect against Aβ-induced neurotoxicity (neuronal cell survival, PI uptake) |
| --- | --- |
| Clc1nc(NCc2ccccc2)c2ncn(Cc3cn(Cc4ccccc4)nn3)c2n1 [Compound 6, 2-Chloro-6-benzylamino-9-(1-benzyl-1H-1,2,3-triazol-4-yl-methyl)purine] | only marginal effects |
| Fc1ccccc1Cn1cc(Cn2cnc3c(NCc4ccccc4)nc(Cl)nc32)nn1 [Compound 7, 2-Chloro-6-benzylamino-9-[1-(2-fluorobenzyl)-1H-1,2,3-triazol-4-yl-methyl]purine] | neuronal cell survival rates comparable to those of the control experiments; also recorded: effectively suppressed Aβ-induced neurotoxicity |
| Fc1cccc(F)c1Cn1cc(Cn2cnc3c(NCc4ccccc4)nc(Cl)nc32)nn1 [Compound 8, 2-Chloro-6-benzylamino-9-[1-(2,6-difluorobenzyl)-1H-1,2,3-triazol-4-yl-methyl]purine] | only marginal effects |
| Fc1c(F)c(F)c(Cn2cc(Cn3cnc4c(NCc5ccccc5)nc(Cl)nc43)nn2)c(F)c1F [Compound 9, 2-Chloro-6-benzylamino-9-[1-(pentafluorobenzyl)-1H-1,2,3-triazol-4-yl-methyl]purine] | virtually no neuroprotective effect |
| CN1CC[C@H](c2c(O)cc(O)c3c(=O)cc(-c4ccccc4Cl)oc23)[C@H](O)C1 [Flavopiridol, reference compound] | neuronal cell survival rates comparable to those of the control experiments |
| CC[C@H](CO)Nc1nc(NCc2ccccc2)c2ncn(C(C)C)c2n1 [Roscovitine, reference compound] | neuronal cell survival rates comparable to those of the control experiments |
